# Activity calls are given as the source filed them.
# Experiments:
# [1] = microbe, parasite or virus in culture; format: functional; details: Mycobacterium tuberculosis
# [2] = target: T1, Exodeoxyribonuclease V (Escherichia coli (strain K12), UniProt P04993+P07648+P08394); assay: E. coli RecBCD inhibitors, dose response, counter-screen for AddAB inhibitor project, absorbance, V66 E. coli, mutant T4 phage (AID 492957); format: functional, cell-based, Escherichia coli str. K-12 substr. MG1655
# T1 sequence (P04993 whole entry): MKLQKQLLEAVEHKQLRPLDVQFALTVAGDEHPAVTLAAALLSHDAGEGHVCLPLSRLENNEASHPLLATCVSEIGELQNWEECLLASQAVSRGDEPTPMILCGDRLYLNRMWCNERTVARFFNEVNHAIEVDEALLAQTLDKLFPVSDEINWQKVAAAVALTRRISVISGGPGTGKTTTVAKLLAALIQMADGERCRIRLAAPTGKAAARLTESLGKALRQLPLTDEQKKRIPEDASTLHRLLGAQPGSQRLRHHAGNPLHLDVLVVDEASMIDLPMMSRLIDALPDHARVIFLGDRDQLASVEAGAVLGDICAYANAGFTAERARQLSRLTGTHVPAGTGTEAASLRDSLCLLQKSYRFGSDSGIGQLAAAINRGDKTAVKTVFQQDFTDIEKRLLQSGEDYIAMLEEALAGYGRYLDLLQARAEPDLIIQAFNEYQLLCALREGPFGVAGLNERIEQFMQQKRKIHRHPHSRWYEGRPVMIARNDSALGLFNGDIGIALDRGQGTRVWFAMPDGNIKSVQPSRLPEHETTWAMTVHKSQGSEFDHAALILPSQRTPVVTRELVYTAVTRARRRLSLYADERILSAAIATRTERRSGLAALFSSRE
# T1 sequence (P07648 whole entry): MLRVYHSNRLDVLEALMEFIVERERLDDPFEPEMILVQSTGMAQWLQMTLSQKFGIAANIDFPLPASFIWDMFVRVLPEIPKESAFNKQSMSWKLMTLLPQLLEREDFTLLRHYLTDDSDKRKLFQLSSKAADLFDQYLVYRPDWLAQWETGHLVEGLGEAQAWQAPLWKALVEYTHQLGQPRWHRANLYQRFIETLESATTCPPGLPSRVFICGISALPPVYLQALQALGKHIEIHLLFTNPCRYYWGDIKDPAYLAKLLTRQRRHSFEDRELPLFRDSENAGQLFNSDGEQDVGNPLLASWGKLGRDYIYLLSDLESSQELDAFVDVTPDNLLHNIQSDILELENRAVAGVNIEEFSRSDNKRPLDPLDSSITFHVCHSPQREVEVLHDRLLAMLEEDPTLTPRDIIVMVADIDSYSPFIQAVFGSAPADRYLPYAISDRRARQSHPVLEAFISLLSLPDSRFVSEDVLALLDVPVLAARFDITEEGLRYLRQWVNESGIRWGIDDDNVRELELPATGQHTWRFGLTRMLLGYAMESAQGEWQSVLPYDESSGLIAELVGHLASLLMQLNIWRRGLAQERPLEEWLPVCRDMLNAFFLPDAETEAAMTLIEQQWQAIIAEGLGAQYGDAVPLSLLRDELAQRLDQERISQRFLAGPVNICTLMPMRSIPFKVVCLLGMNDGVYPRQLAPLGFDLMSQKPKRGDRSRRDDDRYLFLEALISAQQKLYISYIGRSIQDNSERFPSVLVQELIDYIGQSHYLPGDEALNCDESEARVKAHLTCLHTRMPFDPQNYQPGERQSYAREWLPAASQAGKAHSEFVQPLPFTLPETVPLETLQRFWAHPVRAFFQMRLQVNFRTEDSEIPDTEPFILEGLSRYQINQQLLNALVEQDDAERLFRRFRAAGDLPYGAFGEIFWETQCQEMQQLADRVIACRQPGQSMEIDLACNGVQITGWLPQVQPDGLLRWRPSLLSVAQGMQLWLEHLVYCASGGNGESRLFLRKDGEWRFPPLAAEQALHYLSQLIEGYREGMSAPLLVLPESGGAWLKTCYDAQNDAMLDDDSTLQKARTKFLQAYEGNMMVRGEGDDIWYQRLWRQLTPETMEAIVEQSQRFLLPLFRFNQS
# T1 sequence (P08394 whole entry): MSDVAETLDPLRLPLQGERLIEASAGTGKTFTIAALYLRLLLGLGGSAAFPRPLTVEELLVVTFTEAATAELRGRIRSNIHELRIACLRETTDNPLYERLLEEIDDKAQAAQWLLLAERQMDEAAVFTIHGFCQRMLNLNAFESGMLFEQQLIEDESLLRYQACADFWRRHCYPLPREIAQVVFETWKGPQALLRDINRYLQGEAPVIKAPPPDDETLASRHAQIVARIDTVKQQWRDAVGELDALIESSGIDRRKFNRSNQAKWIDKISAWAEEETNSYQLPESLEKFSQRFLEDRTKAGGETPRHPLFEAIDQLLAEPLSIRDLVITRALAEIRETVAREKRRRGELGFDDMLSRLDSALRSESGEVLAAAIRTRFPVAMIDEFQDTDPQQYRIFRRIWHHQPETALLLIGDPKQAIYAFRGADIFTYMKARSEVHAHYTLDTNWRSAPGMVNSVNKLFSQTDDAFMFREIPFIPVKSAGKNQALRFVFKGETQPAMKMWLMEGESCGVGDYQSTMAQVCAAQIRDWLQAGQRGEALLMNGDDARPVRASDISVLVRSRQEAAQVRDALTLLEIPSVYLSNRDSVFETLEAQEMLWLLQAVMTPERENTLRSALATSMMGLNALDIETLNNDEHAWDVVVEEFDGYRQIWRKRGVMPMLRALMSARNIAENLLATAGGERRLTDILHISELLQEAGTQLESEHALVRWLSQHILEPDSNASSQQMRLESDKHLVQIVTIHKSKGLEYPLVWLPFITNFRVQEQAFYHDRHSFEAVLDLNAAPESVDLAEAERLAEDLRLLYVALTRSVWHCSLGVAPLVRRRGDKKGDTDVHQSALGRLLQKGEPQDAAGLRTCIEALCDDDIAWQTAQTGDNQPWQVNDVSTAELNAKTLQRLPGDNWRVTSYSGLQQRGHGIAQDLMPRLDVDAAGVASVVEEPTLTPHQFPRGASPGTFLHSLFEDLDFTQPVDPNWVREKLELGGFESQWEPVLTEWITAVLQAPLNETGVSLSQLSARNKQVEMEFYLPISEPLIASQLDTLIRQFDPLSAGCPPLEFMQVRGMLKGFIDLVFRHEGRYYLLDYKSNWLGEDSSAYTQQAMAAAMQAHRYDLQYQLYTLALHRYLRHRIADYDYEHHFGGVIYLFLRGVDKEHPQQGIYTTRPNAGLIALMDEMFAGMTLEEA
# [3] = target: Intestinal-type alkaline phosphatase (Mus musculus, UniProt P24822); assay: PubChem AID 488874; format: functional
# [4] = target: T2, Intestinal-type alkaline phosphatase (Homo sapiens, UniProt P09923); assay: human intestinal alkaline phosphatase activators, dose response, biochemical, luminescence, uHTS hits (AID 463120); format: functional
# [5] = target: T2, Intestinal-type alkaline phosphatase; assay: human IAP activators, dose response, biochemical, luminescent, uHTS hits, set 2 (AID 488817); format: functional;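 further: potency of activators that raise enzyme activity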
# [6] = Counterscreen for AddAB inhibitors: absorbance-based bacterial cell-based high throughput dose response assay for inhibitors of bacterial viability. [Related pubchem assays (depositor defined):AID435030, AID449728, AID449731, AID488942, AID488955, AID488956]; format: functional
# [7] = target: T3, Endoribonuclease toxin MazF (Escherichia coli K-12, UniProt P0AE70); assay: MazF toxin RNase activators, dose response, biochemical, fluorescence, single-stranded RNA substrate, uHTS hits (AID 588481); format: functional
# T3 sequence (P0AE70 whole entry): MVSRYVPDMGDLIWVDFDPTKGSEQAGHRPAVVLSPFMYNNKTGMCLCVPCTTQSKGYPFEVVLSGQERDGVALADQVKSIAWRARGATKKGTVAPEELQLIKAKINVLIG
# [8] = target: Heat shock protein HSP 90-alpha (Homo sapiens, UniProt P07900); format: functional, organism-based
# [9] = target: T3, Endoribonuclease toxin MazF; assay: fluorescent RNA oligo signal without MazF, dose response, counter-screen for MazEF activator project, biochemical, fluorescence, single-stranded RNase substrate (AID 588502); format: functional
# [10] = target: Mu-type opioid receptor (Homo sapiens, UniProt P35372); assay: SAR Analysis of Antagonists of the MOR Receptor using an Image-Based Assay - Set 3. [Related pubchem assays (depositor defined):AID1777, AID1785, AID1786, AID1966, AID2133, AID2136, AID2284, AID2285, AID2420]; format: functional
# [11] = target: Delta-type opioid receptor (Homo sapiens, UniProt P41143); assay: SAR Analysis of Antagonists of the DOR Receptor using an Image-Based Assay - Set 3. [Related pubchem assays (depositor defined):AID1777, AID1785]; format: functional;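 further: U2OS cells expressing DOR1 and beta-arrestin GFP stimulated with 100 nM SNC80; imaging of GFP-tagged beta-arrestin moving into spots after receptor activation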
# [12] = target: T4, Kappa-type opioid receptor (Homo sapiens, UniProt P41145); assay: SAR analysis of small molecule antagonists of the kappa opioid receptor via a luminescent beta-arrestin assay - Set 3. [Related pubchem assays (depositor defined):AID1777, AID1778, AID1785, AID1786, AID1966, AID2133, AID2136, AID2285, AID2495]; format: functional
# [13] = target: T4, Kappa-type opioid receptor; assay: SAR analysis of Antagonists of the Kappa Opioid Receptor (KOR) using an Image-Based Assay - Set 3. [Related pubchem assays (depositor defined):AID1777, AID1785]; format: functional
# [14] = target: T4, Kappa-type opioid receptor; assay: SAR analysis of Antagonists of the Kappa Opioid Receptor (KOR) using an Image-Based Assay - Set 4. [Related pubchem assays (depositor defined):AID1777, AID1785]; format: functional
# [15] = THP-1 cell cytotoxicity, dose response, cytotoxicity control for non-replicating M. tuberculosis project (AID 489025); format: functional
# [16] = target: T5, Ubiquitin-conjugating enzyme E2 N (Homo sapiens, UniProt P61088); format: functional;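 further: Dose-response confirmation in a TR-FRET assay detecting UBC13-driven polyubiquitin chain formation, inhibition measured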
# T5 sequence (P61088 whole entry): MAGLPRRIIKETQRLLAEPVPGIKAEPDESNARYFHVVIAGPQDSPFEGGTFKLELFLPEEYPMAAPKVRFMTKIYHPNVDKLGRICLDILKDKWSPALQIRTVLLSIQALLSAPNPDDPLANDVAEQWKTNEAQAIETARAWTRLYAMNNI
# [17] = Vero E6 cell cytotoxicity, dose response, cytotoxicity control for non-replicating M. tuberculosis project, secondary assay (AID 492998); format: functional, VeroE6; details: Vero C1008
# [18] = target: Nonstructural protein 1 (Influenza A virus, UniProt Q194T2); format: functional, Influenza A virus (A/California/07/2009(H1N1))
# [19] = target: DNA damage-inducible transcript 3 protein (Mus musculus, UniProt P35639); format: functional, Cricetulus griseus
# [20] = cells; format: functional
# [21] = cells; format: functional, cell-based
# [22] = target: T6, Trace amine-associated receptor 1 (Homo sapiens, UniProt Q96RJ0); assay: Fluorescence-based cell-based high throughput dose response assay to identify agonists of the human trace amine associated receptor 1 (TAAR1).; format: functional
# T6 sequence (Q96RJ0 whole entry): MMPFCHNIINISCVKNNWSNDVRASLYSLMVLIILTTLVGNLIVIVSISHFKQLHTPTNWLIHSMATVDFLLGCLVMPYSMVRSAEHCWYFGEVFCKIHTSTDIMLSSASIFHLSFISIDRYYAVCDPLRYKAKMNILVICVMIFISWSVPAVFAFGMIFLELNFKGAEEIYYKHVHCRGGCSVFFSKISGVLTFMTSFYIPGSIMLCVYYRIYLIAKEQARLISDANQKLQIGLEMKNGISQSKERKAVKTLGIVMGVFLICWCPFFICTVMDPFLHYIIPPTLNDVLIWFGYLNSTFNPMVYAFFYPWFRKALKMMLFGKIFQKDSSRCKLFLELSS
# [23] = target: T7, DNA repair protein RAD52 homolog (Homo sapiens, UniProt P43351); format: functional, biochemical
# T7 sequence (P43351 whole entry): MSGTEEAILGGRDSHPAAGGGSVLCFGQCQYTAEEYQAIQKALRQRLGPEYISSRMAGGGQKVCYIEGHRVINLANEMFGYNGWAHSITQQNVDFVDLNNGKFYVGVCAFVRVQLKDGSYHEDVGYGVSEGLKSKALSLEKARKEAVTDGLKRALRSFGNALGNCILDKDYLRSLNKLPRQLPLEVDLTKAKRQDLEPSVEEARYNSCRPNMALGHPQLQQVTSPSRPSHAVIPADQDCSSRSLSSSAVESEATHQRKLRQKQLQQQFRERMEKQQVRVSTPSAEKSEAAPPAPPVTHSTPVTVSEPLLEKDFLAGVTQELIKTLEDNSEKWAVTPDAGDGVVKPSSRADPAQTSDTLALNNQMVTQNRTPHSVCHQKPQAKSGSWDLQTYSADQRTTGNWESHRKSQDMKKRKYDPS
# [24] = target: T6, Trace amine-associated receptor 1; assay: Counterscreen for agonists of the human trace amine associated receptor 1 (hTAAR1): Fluorescence-based cell-based high throughput dose response assay to identify hTAAR1 agonist that also desensitize TAAR1 receptor response.; format: functional
# [25] = cells; format: functional, cell-based; remark: listed apart in the source
# T4 sequence (P41145 whole entry): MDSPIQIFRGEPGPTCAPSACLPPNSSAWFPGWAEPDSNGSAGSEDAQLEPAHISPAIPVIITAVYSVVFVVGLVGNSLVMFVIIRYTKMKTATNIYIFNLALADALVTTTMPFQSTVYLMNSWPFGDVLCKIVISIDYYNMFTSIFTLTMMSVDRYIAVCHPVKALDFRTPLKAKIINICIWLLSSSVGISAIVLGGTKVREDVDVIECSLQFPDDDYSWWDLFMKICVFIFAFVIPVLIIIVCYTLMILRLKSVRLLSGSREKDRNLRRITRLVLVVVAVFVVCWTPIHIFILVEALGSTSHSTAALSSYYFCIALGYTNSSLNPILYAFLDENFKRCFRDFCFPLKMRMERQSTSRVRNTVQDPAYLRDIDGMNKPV
# T2 sequence (P09923 whole entry): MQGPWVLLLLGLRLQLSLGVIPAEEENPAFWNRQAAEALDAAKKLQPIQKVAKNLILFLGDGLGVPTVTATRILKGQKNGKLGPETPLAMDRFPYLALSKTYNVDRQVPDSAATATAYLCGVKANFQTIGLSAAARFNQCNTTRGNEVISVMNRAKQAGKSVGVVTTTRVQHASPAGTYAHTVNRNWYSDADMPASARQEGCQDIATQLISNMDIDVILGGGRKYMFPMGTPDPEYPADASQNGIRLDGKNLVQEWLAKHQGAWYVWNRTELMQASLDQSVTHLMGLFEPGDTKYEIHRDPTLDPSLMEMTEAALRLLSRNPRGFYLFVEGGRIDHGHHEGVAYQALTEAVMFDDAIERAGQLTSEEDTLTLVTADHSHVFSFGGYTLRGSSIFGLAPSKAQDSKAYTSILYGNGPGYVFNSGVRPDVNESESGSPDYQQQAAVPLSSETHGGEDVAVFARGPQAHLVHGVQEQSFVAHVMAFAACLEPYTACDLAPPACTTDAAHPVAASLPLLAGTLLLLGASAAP
# Chain of Intestinal-type alkaline phosphatase (Mus musculus, UniProt P24822) (P24822 whole entry): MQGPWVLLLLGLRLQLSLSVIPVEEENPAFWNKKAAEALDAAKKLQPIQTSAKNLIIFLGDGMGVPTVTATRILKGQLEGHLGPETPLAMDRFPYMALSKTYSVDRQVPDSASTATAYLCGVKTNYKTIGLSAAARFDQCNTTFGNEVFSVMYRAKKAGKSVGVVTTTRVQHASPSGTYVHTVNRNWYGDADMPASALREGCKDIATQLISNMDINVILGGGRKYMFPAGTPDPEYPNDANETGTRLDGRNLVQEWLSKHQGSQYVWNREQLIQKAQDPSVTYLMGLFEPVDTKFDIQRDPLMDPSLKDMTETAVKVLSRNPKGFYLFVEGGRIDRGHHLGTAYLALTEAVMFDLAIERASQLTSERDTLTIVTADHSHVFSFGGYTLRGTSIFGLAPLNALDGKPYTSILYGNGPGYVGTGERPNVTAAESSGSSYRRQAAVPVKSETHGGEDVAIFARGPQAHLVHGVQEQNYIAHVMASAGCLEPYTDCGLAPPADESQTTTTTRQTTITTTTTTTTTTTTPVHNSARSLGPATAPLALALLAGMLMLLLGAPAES
# Chain of Mu-type opioid receptor (P35372 whole entry): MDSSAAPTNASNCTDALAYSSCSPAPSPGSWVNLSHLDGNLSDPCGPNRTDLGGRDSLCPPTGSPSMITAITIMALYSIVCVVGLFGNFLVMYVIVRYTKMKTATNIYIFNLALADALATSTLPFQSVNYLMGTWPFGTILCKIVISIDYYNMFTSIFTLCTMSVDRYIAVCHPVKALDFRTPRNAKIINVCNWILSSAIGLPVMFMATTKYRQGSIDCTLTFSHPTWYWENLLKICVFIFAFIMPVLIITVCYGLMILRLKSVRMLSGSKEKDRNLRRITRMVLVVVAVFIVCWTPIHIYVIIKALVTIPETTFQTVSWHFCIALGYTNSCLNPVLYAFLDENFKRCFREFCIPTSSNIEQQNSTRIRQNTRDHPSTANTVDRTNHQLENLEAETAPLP
# Chain of Delta-type opioid receptor (P41143 whole entry): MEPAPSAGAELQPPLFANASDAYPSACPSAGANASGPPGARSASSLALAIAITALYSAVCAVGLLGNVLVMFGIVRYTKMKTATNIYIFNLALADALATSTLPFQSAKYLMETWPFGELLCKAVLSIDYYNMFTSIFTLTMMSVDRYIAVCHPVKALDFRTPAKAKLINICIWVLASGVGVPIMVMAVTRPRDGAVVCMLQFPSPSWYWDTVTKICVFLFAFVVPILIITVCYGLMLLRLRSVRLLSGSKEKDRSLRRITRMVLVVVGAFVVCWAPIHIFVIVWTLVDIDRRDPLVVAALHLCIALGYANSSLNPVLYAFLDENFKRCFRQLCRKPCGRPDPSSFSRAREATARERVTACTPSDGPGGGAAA
# Chain of Nonstructural protein 1 (Q194T2 whole entry): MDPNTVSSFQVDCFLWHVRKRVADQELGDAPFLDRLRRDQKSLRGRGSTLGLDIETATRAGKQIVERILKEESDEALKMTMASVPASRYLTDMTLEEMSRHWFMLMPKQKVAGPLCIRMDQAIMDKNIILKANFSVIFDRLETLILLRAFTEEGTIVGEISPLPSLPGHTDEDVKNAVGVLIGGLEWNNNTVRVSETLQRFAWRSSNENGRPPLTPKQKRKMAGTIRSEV
# Chain of DNA damage-inducible transcript 3 protein (P35639 whole entry): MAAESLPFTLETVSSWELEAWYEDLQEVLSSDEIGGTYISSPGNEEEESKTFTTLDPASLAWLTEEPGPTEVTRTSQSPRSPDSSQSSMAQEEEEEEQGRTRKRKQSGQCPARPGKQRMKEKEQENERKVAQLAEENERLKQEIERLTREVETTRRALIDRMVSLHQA
smiles,measurement,setting,value
C=CCN1C(=O)/C(=N/Nc2ccccc2O)c2ccccc21,CC50,[1],38.1 µM (active)
same,IC50,[2],> 118 µM (inactive)
same,IC50,[3],9.81 µM (active)
same,EC50,[4],8.62 µM (active)
same,EC50,[5],0.378 µM (active)
same,IC50,[6],42.8 µM (inactive)
same,EC50,[7],> 99 µM (inactive)
same,AC50,[8],10.9 µM (active)
same,EC50,[9],46.3 µM (inactive)
Cc1ccc(N2CCN(CCCNC(=O)Cn3c(=O)c4cccn4c4cccnc43)CC2)cc1,IC50,[10],18.8 µM (inactive)
same,IC50,[11],> 32 µM (inactive)
same,IC50,[12],3.68 µM (active)
same,IC50,[13],0.776 µM (active)
same,IC50,[14],1.01 µM (active)
N=C(N)N/N=C/c1cn(-c2ccccc2)nc1-c1cccs1.O=[N+]([O-])O,CC50,[15],12.3 µM (active)
same,IC50,[16],> 20 µM (inactive)
same,CC50,[17],11 µM (active)
same,IC50,[18],> 100 µM (active)
same,Absolute IC50 (CHOP),[19],10 µM
same,IC50,[20],11 µM (active)
same,IC50,[21],12.2 µM (inactive)
same,EC50,[22],6.9 µM (active)
same,AC50,[23],3.85 µM (active)
same,IC50,[24],17.7 µM (inactive)
same,EC50,[25],11.4 µM (inactive)

# Source: ChEMBL document CHEMBL1201862, “PubChem BioAssay data set” (2004)
